Experimental data as given in patent publication US9587005B2 (priority 2010, dated 2017).
One block for each compound: values may come before it. *1 amine or outer side, *2 acyl side, *3 side chain or, on linkers, in order; H or OH if unused. Where a SMILES comes first, the peptide text is derived from it. Side-chain parts run from the residue outwards. [ ]: non-standard residue; d: D form. The star is where a group is joined. Phe(4-NH2) = Nc1ccc(C[C@H](N)C(=O)O)cc1; γGlu = O=C(O)[C@H](CCC(=O)[*:2])N[*:1]; Palmitoyl = CCCCCCCCCCCCCCCC(=O)*; Aib = CC(C)(N)C(=O)O

What was measured:
[1] = molecular target: T1, GLP-1 receptor (Homo sapiens, UniProt P43220); test: cAMP induction, firefly luciferase reporter assay in HEK293 cells co-transfected with GLP-1 receptor; type: cell-based; settings: EC50 (nM) at GLP-1 Receptor
T1 construct: expressed in transfected cells; host or cells: HEK293
Excerpt: This example describes an exemplary method of testing the biological activity of the peptides of the present disclosures, which method involves assaying cAMP synthesis.

[2] = molecular target: T2, GIP receptor (Homo sapiens, UniProt P48546); test: cAMP induction, firefly luciferase reporter assay in HEK293 cells co-transfected with GIP receptor; type: cell-based; settings: EC50 (nM) at GIP Receptor
T2 sequence (P48546 22-466): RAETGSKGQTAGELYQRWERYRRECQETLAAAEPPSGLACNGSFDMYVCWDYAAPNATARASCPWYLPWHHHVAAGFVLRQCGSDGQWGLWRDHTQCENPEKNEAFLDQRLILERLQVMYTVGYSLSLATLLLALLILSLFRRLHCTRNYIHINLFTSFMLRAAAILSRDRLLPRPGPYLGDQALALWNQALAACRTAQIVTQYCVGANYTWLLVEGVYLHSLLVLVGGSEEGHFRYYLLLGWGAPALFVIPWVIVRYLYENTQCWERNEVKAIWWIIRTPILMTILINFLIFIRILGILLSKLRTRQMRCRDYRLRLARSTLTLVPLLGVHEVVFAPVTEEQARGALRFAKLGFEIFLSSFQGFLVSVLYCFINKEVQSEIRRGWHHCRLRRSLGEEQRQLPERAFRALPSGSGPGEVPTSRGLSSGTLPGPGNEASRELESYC

[3] = Table 4, Example 9, composite of multiple different activity assays

T1 sequence (P43220 24-463): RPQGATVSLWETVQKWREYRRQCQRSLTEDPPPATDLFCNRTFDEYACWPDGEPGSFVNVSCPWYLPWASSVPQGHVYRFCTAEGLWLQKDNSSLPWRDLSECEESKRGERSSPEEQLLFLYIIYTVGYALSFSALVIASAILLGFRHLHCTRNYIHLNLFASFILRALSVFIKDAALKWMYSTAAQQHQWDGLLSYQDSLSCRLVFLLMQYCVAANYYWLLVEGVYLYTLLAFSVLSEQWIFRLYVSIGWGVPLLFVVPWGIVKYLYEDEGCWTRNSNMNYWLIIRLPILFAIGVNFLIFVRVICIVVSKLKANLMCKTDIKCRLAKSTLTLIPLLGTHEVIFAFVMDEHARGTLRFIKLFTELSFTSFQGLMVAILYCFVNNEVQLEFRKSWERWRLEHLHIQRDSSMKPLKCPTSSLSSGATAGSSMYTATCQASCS

Structure (SMILES): CCCCCCCCCCCCCCCCC(CC(=O)NCCCC[C@H](NC(=O)[C@H](CO)NC(=O)[C@@H]1CCCN1C(=O)[C@@H]1CCCN1C(=O)[C@@H]1CCCN1C(=O)[C@H](C)NC(=O)CNC(=O)[C@H](CO)NC(=O)[C@H](CO)NC(=O)[C@@H]1CCCN1C(=O)CNC(=O)CNC(=O)[C@H](C)NC(=O)[C@H](CC(C)C)NC(=O)[C@H](CC(C)C)NC(=O)[C@H](Cc1c[nH]c2ccccc12)NC(=O)[C@H](CC(N)=O)NC(=O)[C@@H](NC(=O)[C@H](Cc1ccccc1)NC(=O)[C@H](CCC(=O)O)NC(=O)C(C)(C)NC(=O)[C@H](C)NC(=O)[C@H](C)NC(=O)[C@H](CCC(N)=O)NC(=O)[C@H](CCCCN)NC(=O)[C@H](CC(=O)O)NC(=O)[C@H](CC(C)C)NC(=O)[C@H](Cc1ccc(O)cc1)NC(=O)[C@@H](NC(=O)[C@H](CO)NC(=O)[C@H](Cc1ccc(O)cc1)NC(=O)[C@H](CC(=O)O)NC(=O)[C@H](CO)NC(=O)[C@@H](NC(=O)[C@H](Cc1ccccc1)NC(=O)[C@@H](NC(=O)CNC(=O)[C@H](CCC(=O)O)NC(=O)C(C)(C)NC(=O)[C@@H](N)Cc1ccc(O)cc1)[C@@H](C)O)[C@@H](C)O)[C@@H](C)CC)C(C)C)C(=O)NCC(N)=O)C(=O)O (some centres unmarked) [SEQ ID NO: 140]
EC50 ([1]; Table 9, Example 15): 0.001 nM | EC50 ([2]; Table 9, Example 15): 0.001 nM

Structure (SMILES): CCCCCCCCCCCCCCCCC(CC(=O)NCCC(=O)NCCCC[C@H](NC(=O)[C@H](CO)NC(=O)[C@@H]1CCCN1C(=O)[C@@H]1CCCN1C(=O)[C@@H]1CCCN1C(=O)[C@H](C)NC(=O)CNC(=O)[C@H](CO)NC(=O)[C@H](CO)NC(=O)[C@@H]1CCCN1C(=O)CNC(=O)CNC(=O)[C@H](C)NC(=O)[C@H](CC(C)C)NC(=O)[C@H](CC(C)C)NC(=O)[C@H](Cc1c[nH]c2ccccc12)NC(=O)[C@H](CC(N)=O)NC(=O)[C@@H](NC(=O)[C@H](Cc1ccccc1)NC(=O)[C@H](CCC(=O)O)NC(=O)C(C)(C)NC(=O)[C@H](C)NC(=O)[C@H](C)NC(=O)[C@H](CCC(N)=O)NC(=O)[C@H](CCCCN)NC(=O)[C@H](CC(=O)O)NC(=O)[C@H](CC(C)C)NC(=O)[C@H](Cc1ccc(O)cc1)NC(=O)[C@@H](NC(=O)[C@H](CO)NC(=O)[C@H](Cc1ccc(O)cc1)NC(=O)[C@H](CC(=O)O)NC(=O)[C@H](CO)NC(=O)[C@@H](NC(=O)[C@H](Cc1ccccc1)NC(=O)[C@@H](NC(=O)CNC(=O)[C@H](CCC(=O)O)NC(=O)C(C)(C)NC(=O)[C@@H](N)Cc1ccc(O)cc1)[C@@H](C)O)[C@@H](C)O)[C@@H](C)CC)C(C)C)C(=O)NCC(N)=O)C(=O)O (some centres unmarked) [SEQ ID NO: 141]
EC50 ([1]; Table 9, Example 15): 0.001 nM | EC50 ([2]; Table 9, Example 15): 0.002 nM

Structure (SMILES): CCCCCCCCCCCCCCCCCCC(CC(=O)NCCCC[C@H](NC(=O)[C@H](CO)NC(=O)[C@@H]1CCCN1C(=O)[C@@H]1CCCN1C(=O)[C@@H]1CCCN1C(=O)[C@H](C)NC(=O)CNC(=O)[C@H](CO)NC(=O)[C@H](CO)NC(=O)[C@@H]1CCCN1C(=O)CNC(=O)CNC(=O)[C@H](C)NC(=O)[C@H](CC(C)C)NC(=O)[C@H](CC(C)C)NC(=O)[C@H](Cc1c[nH]c2ccccc12)NC(=O)[C@H](CC(N)=O)NC(=O)[C@@H](NC(=O)[C@H](Cc1ccccc1)NC(=O)[C@H](CCC(=O)O)NC(=O)C(C)(C)NC(=O)[C@H](C)NC(=O)[C@H](C)NC(=O)[C@H](CCC(N)=O)NC(=O)[C@H](CCCCN)NC(=O)[C@H](CC(=O)O)NC(=O)[C@H](CC(C)C)NC(=O)[C@H](Cc1ccc(O)cc1)NC(=O)[C@@H](NC(=O)[C@H](CO)NC(=O)[C@H](Cc1ccc(O)cc1)NC(=O)[C@H](CC(=O)O)NC(=O)[C@H](CO)NC(=O)[C@@H](NC(=O)[C@H](Cc1ccccc1)NC(=O)[C@@H](NC(=O)CNC(=O)[C@H](CCC(=O)O)NC(=O)C(C)(C)NC(=O)[C@@H](N)Cc1ccc(O)cc1)[C@@H](C)O)[C@@H](C)O)[C@@H](C)CC)C(C)C)C(=O)NCC(N)=O)C(=O)O (some centres unmarked) [SEQ ID NO: 142]
EC50 ([1]; Table 9, Example 15): 0.004 nM | EC50 ([2]; Table 9, Example 15): 0.001 nM

Structure (SMILES): CCCCCCCCCCCCCCCC(=O)N[C@@H](CCC(=O)N[C@@H](CCC(=O)Nc1ccc(C[C@H](NC(=O)[C@H](CC(=O)O)NC(=O)[C@H](CO)NC(=O)[C@@H](NC(=O)[C@H](Cc2ccccc2)NC(=O)[C@@H](NC(=O)CNC(=O)[C@H](CCC(=O)O)NC(=O)C(C)(C)NC(=O)[C@@H](N)Cc2ccc(O)cc2)[C@@H](C)O)[C@@H](C)O)C(=O)N[C@@H](CO)C(=O)N[C@H](C(=O)N[C@@H](Cc2ccc(O)cc2)C(=O)N[C@@H](CC(C)C)C(=O)N[C@@H](CC(=O)O)C(=O)N[C@@H](CCCCN)C(=O)N[C@@H](CCC(N)=O)C(=O)N[C@@H](C)C(=O)N[C@@H](C)C(=O)NC(C)(C)C(=O)N[C@@H](CCC(=O)O)C(=O)N[C@@H](Cc2ccccc2)C(=O)N[C@H](C(=O)N[C@@H](CC(N)=O)C(=O)N[C@@H](Cc2c[nH]c3ccccc23)C(=O)N[C@@H](CC(C)C)C(=O)N[C@@H](CC(C)C)C(=O)N[C@@H](C)C(=O)NCC(=O)NCC(=O)N2CCC[C@H]2C(=O)N[C@@H](CO)C(=O)N[C@@H](CO)C(=O)NCC(=O)N[C@@H](C)C(=O)N2CCC[C@H]2C(=O)N2CCC[C@H]2C(=O)N2CCC[C@H]2C(=O)N[C@@H](CO)C(N)=O)C(C)C)[C@@H](C)CC)cc1)C(=O)O)C(=O)O [SEQ ID NO: 143] (H-Y[Aib]EGTFTSD[Phe(4-NH2)]([γGlu-γGlu-Palmitoyl])SIYLDKQAA[Aib]EFVNWLLAGGPSSGAPPPS-NH2; N-terminus assumed)
EC50 ([1]; Table 9, Example 15): 0.002 nM | EC50 ([2]; Table 9, Example 15): 0.003 nM

EC50 [1, 3]: 0.006 nM | EC50 [2, 3]: 0.024 nM
Structure (SMILES): CCCCCCCCCCCCCCCC(=O)N[C@@H](CCC(=O)NCCCC[C@H](NC(=O)[C@H](CC(=O)O)NC(=O)[C@H](CO)NC(=O)[C@@H](NC(=O)[C@H](Cc1ccccc1)NC(=O)[C@@H](NC(=O)CNC(=O)[C@H](CCC(=O)O)NC(=O)C(C)(C)NC(=O)[C@@H](N)Cc1c[nH]cn1)[C@@H](C)O)[C@@H](C)O)C(=O)N[C@@H](CO)C(=O)N[C@@H](CCCCN)C(=O)N[C@@H](Cc1ccc(O)cc1)C(=O)N[C@@H](CC(C)C)C(=O)N[C@@H](CC(=O)O)C(=O)N[C@@H](CCC(=O)O)C(=O)N[C@@H](CCCNC(=N)N)C(=O)N[C@@H](CCCNC(=N)N)C(=O)N[C@@H](C)C(=O)NC(C)(C)C(=O)N[C@@H](CCC(=O)O)C(=O)N[C@@H](Cc1ccccc1)C(=O)N[C@H](C(=O)N[C@@H](CCC(N)=O)C(=O)N[C@@H](Cc1c[nH]c2ccccc12)C(=O)N[C@@H](CC(C)C)C(=O)N[C@@H](CC(C)C)C(=O)N[C@@H](CC(=O)O)C(=O)N[C@H](C(N)=O)[C@@H](C)O)C(C)C)C(=O)O [compound 40] (H-H[Aib]EGTFTSDK([γGlu-Palmitoyl])SKYLDERRA[Aib]EFVQWLLDT-NH2; N-terminus assumed)

Structure (SMILES): CCCCCCCCCCCCCCCC(=O)N[C@@H](CCC(=O)NCCCC[C@H](NC(=O)[C@H](CC(=O)O)NC(=O)[C@H](CO)NC(=O)[C@@H](NC(=O)[C@H](Cc1ccccc1)NC(=O)[C@@H](NC(=O)CNC(=O)[C@H](CCC(=O)O)NC(=O)C(C)(C)NC(=O)[C@@H](N)Cc1c[nH]cn1)[C@@H](C)O)[C@@H](C)O)C(=O)N[C@@H](CO)C(=O)N[C@@H](CCCCN)C(=O)N[C@@H](Cc1ccc(O)cc1)C(=O)N[C@@H](CC(C)C)C(=O)N[C@@H](CC(=O)O)C(=O)N[C@@H](CCC(=O)O)C(=O)N[C@@H](CCCNC(=N)N)C(=O)N[C@@H](CCCNC(=N)N)C(=O)N[C@@H](C)C(=O)NC(C)(C)C(=O)N[C@@H](CC(=O)O)C(=O)N[C@@H](Cc1ccccc1)C(=O)N[C@H](C(=O)N[C@@H](CCC(N)=O)C(=O)N[C@@H](Cc1c[nH]c2ccccc12)C(=O)N[C@@H](CC(C)C)C(=O)N[C@@H](CC(C)C)C(=O)N[C@@H](CC(=O)O)C(=O)NCC(=O)NCC(=O)N1CCC[C@H]1C(=O)N[C@@H](CO)C(=O)N[C@@H](CO)C(=O)NCC(=O)N[C@@H](C)C(=O)N1CCC[C@H]1C(=O)N1CCC[C@H]1C(=O)N1CCC[C@H]1C(=O)N[C@@H](CO)C(N)=O)C(C)C)C(=O)O [compound 41] (H-H[Aib]EGTFTSDK([γGlu-Palmitoyl])SKYLDERRA[Aib]DFVQWLLDGGPSSGAPPPS-NH2)
EC50 [1, 3]: 0.006 nM | EC50 [2, 3]: 0.013 nM

Structure (SMILES): CC[C@H](C)[C@H](NC(=O)[C@H](CO)NC(=O)[C@H](Cc1ccc(O)cc1)NC(=O)[C@H](CC(=O)O)NC(=O)[C@H](CO)NC(=O)[C@@H](NC(=O)[C@H](Cc1ccccc1)NC(=O)[C@@H](NC(=O)CNC(=O)[C@H](CCC(N)=O)NC(=O)[C@@H](CO)NC(=O)[C@@H](N)Cc1c[nH]cn1)[C@@H](C)O)[C@@H](C)O)C(=O)N[C@@H](Cc1ccc(O)cc1)C(=O)N[C@@H](CC(C)C)C(=O)N[C@@H](CC(=O)O)C(=O)N[C@@H](CCCCN)C(=O)N[C@@H](CCC(N)=O)C(=O)N[C@@H](C)C(=O)N[C@@H](C)C(=O)NC(C)(C)C(=O)N[C@@H](CCC(=O)O)C(=O)N[C@@H](Cc1ccccc1)C(=O)N[C@H](C(=O)N[C@@H](CC(N)=O)C(=O)N[C@@H](Cc1c[nH]c2ccccc12)C(=O)N[C@@H](CC(C)C)C(=O)N[C@@H](CC(C)C)C(=O)N[C@@H](C)C(=O)NCC(=O)NCC(=O)N1CCC[C@H]1C(=O)N[C@@H](CO)C(=O)N[C@@H](CO)C(=O)NCC(=O)N[C@@H](C)C(=O)N1CCC[C@H]1C(=O)N1CCC[C@H]1C(=O)N1CCC[C@H]1C(=O)N[C@@H](CO)C(=O)N[C@@H](CS)C(N)=O)C(C)C [compound 48] (H-H[dS]QGTFTSDYSIYLDKQAA[Aib]EFVNWLLAGGPSSGAPPPSC-NH2; N-terminus assumed)
EC50 ([1]; Table 6, Example 12): 0.01 nM | EC50 ([2]; Table 6, Example 12): 0.433 nM
